Measurements taken from patent US20240238380A1, “COMPOSITION FOR COMBINATION THERAPY COMPRISING GROWTH DIFFERENTIATION FACTOR-15 VARIANT AND GLUCAGON-LIKE PEPTIDE-1 RECEPTOR AGONIST” (YUHAN CORPORATION, priority 2021, published 2024).
Marks after values point to notes of the source that are not given here.

Key:
Type in all cases: in vivo
[1] = Anti-obesity effect alone and in combination with semaglutide or tirzepatide in DIO mice (Example 7); details: 10 nmol/kg s.c. Q3D
From the text: Diet-induced obese (DIO) mice, obtained by feeding mice with high-fat diet, are characterized by obesity, hyperglycemia, and insulin resistance. Diet-induced obese mice (Taconic, USA) resulting from feeding C57BL/6N mice with high-fat food (60 kcal % fat, Research Diets, Cat #D12492, USA) for 8 weeks were purchased from Raon Bio (Animal Inc., Republic of Korea). The diet-induced obese mice were additionally fed with 60% high-fat food for 5 weeks after arrival, and then used in the present test. On the day before drug treatment, the mice were grouped based on the average body weight of individual mice (n=6 per group), after which 0.1 and 1 nmol/kg of FM9-6+Fc_hole alone, 10 nmol/kg of semaglutide (long-acting GLP-1 derivative, SEQ ID NO: 114) and 10 nmol/kg of tirzepatide (long-acting GLP-1/GIP derivative, SEQ ID NO: 117) alone as control drugs, FM9-6+Fc_hole and semaglutide at doses of 0.1+10 and 1+10 nmol/kg in combination, and FM9-6+Fc_hole and tirzepatide at doses of 1+10 nmol/kg in combination were subcutaneously administered thereto every 3 days (Q3D) for a total of 4 weeks. The semaglutide that was used in the test was Ozempic® (semaglutide) from Novo NorDisk, and the tirzepatide that was used was a material synthesized by MedChemExpress (HY-P1731B, USA). Here, DPBS (Dulbecco's phosphate-buffered saline, Gibco, USA) was administered for vehicle treatment, and, during the experimental period (26 days), body weight was measured every day and food intake was measured every 3 days.

[2] = Anti-obesity effect by repeated administration alone and in combination with semaglutide in ob/ob mice (Example 5)
From the text: The ob/ob mouse has a mutation in the leptin gene resulting in leptin deficiency, and are characterized by hyperglycemia, insulin resistance, overeating, and obesity. 5-week-old male ob/ob mice (Jackson Laboratory, USA) were purchased from Raon Bio (Animal Inc., Republic of Korea). The ob/ob mice were acclimatized with normal food (Teklad Certified Irradiated Global 18% Protein Rodent Diet, 2918C, Harlan Co., USA) for 4 weeks, and drug treatment was started at 9 weeks of age. On the day before drug treatment, the mice were grouped based on the body weight of individual mice and random blood glucose levels determined by sampling at the tail vein (n=6 per group). Thereafter, 1 and 10 nmol/kg of FM9-6+Fc_hole alone, 10 and 30 nmol/kg of semaglutide alone, and FM9-6+Fc_hole and semaglutide at doses of 1+10 and 10+10 nmol/kg in combination were subcutaneously administered thereto a total of 10 times every 3 days (Q3D), and body weight and food intake were measured every day or every 3 days during the experimental period (29 days). Here, DPBS (Dulbecco's phosphate-buffered saline, Gibco, USA) was administered for vehicle treatment.

[3] = Inhibitory effect on gastric emptying (acetaminophen exposure) in normal rats (Example 8); details: rats; for gastric emptying (in words): vs. negative control
Method: Therefore, this example was performed to investigate the inhibitory effect on gastric emptying when the novel long-acting GDF15 fusion protein was administered at the doses equal to the effective dose, higher than the maximum effective dose, or in combination with a GLP-1 receptor agonist to rats. 6-week-old male SD rats (Orient Bio, Republic of Korea) were purchased from Hallym Lab. Animal Inc., Republic of Korea. Animals were acclimated for 7 days. On the day of drug administration, the rats were grouped based on the average body weight of individual rats (n=5 per group) and fasted for at least 6 hours before oral administration of acetaminophen. Then, 0.1, 1, and 10 nmol/kg of FM9-6+Fc_hole, 10 nmol/kg of semaglutide (long-acting GLP-1 derivative, SEQ ID NO: 114), and combination of FM9-6+Fc_hole and semaglutide (1+10 nmol/kg) were subcutaneously administered. The semaglutide was Ozempic® (semaglutide) from Novo NorDisk. As a negative control drug, D-PBS (normal vehicle) was subcutaneously administered, and as a positive control drug, 30 mg/kg of loperamide was orally administered 45 minutes before acetaminophen administration. On 3, 24 and 72 hours after a single dose of the test articles, acetaminophen was orally administered at 100 mg/kg to rats, and blood samples were collected before and at 30, 60, 90, 120 and 150 minutes after acetaminophen administration. The plasma concentration of acetaminophen was analyzed, and the pharmacokinetic profiles and the systemic exposures of acetaminophen were compared to evaluate the inhibitory effect on gastric emptying among the groups.

[4] = Anti-obesity and metabolic parameter effects alone and in combination with large dose of semaglutide in ob/ob mice (Example 6); details: 30 nmol/kg s.c. Q3D
From the text: 5-week-old male ob/ob mice (Jackson Laboratory, USA) were purchased from Raon Bio (Animal Inc., Republic of Korea). The ob/ob mice were acclimatized with normal chow or normal chow diet (Teklad Certified Irradiated Global 18% Protein Rodent Diet, 2918C, Harlan Co., USA) for 5 weeks, and drug treatment was started at 10 weeks of age. On the day before drug treatment, the mice were grouped based on the body weight of individual mice and random blood glucose levels determined by sampling at the tail vein (n=6 per group). Thereafter, 1 nmol/kg of FM9-6+Fc_hole alone, 30 nmol/kg of semaglutide alone, and FM9-6+Fc_hole and semaglutide in combination (1+30 nmol/kg) were subcutaneously administered thereto a total of 9 times every 3 days (Q3D), and body weight, food intake, and non-fasting blood glucose were measured every day or every 3 days during the experimental period (24 days). Here, DPBS (Dulbecco's phosphate-buffered saline, Gibco, USA) was administered for vehicle treatment.

[5] = Anti-obesity effect alone and in combination with semaglutide in diet-induced obese (DIO) mice (Example 4); details: for Change in body weight (%) vs. day 0, Maximum efficacy: 8 weeks
From the text: Diet-induced obese (DIO) mice, obtained by feeding mice with high-fat food, are characterized by obesity, hyperglycemia, and insulin resistance. Diet-induced obese mice (Taconic, USA) resulting from feeding C57BL/6N mice with high-fat food (60 kcal % fat, Research Diets, Cat #D12492, USA) for 8 weeks were purchased from Raon Bio (Animal Inc., Republic of Korea). The diet-induced obese mice were additionally fed with 60% high-fat food for 5 weeks after arrival, and then used in the present test. On the day before drug treatment, the mice were grouped based on the average body weight of individual mice (n=6 per group), after which 10 and 30 nmol/kg of FM9-6+Fc_hole alone, 10 and 30 nmol/kg of semaglutide (long-acting GLP-1 derivative, SEQ ID NO: 114) alone as a control drug, and FM9-6+Fc_hole and semaglutide were administered subcutaneously every 2 days (Q2D) for a total of 8 weeks in a combination of 10+10 and 30+30 nmol/kg. The semaglutide that was used in the test was Ozempic® (semaglutide) from Novo NorDisk. Here, for vehicle treatment, DPBS (Dulbecco's phosphate-buffered saline, Gibco, USA) was subcutaneously administered every 2 days (Q2D). Body weight was measured every 2 days from the first day of drug treatment to day 54, and the results thereof are shown in Table 4 below.

## semaglutide [reference compound]
[1]; 4 weeks
  Change in body weight (%) vs. day 0, Maximum efficacy: −18.95 (On Day 19)**** %
[1]; Day 26
  Change in body weight (%) vs. day 0, Efficacy on Day 26: −17.69**** %
[2]; 10 nmol/kg s.c. Q3D
  Change in body weight (%) vs. ob/ob control, Maximum efficacy: −10.04 (On Day 25)*** %
  Change in body weight (%) vs. ob/ob control, Efficacy on Day 29: −6.88* %
[2]; 30 nmol/kg s.c. Q3D
  Change in body weight (%) vs. ob/ob control, Maximum efficacy: −11.38 (On Day 25)**** %
  Change in body weight (%) vs. ob/ob control, Efficacy on Day 29: −9.92**** %
[3]; 10 nmol/kg s.c. single dose, acetaminophen 3 hr after dose
  AUClast of acetaminophen (μg · min/mL), 3 hr: 266.43*** μg · min/mL
[3]; 10 nmol/kg s.c. single dose, acetaminophen 24 hr after dose
  AUClast of acetaminophen (μg · min/mL), 24 hr: 2577.72 µg·min/mL
[3]; 10 nmol/kg s.c. single dose, acetaminophen 72 hr after dose
  AUClast of acetaminophen (μg · min/mL), 72 hr: 3354.48 µg·min/mL
[3]; 24 and 72 hours after administration
  gastric emptying (in words): gastric emptying was restored
[3]; 3 hours after administration
  gastric emptying (in words): inhibition of gastric emptying
[4]
  Change in body weight (%) vs. ob/ob control, Efficacy on Day 24: −10.08**** %
  Mean of random blood glucose levels (mg/dL), Efficacy on Day 24: 155.7**** mg/dL
[5]; 10 nmol/kg s.c. Q2D
  Change in body weight (%) vs. day 0, Maximum efficacy: −26.71 (On Day 30)**** %
  Change in body weight (%) vs. day 0, Efficacy on Day 54: −17.34**** %
[5]; 30 nmol/kg s.c. Q2D
  Change in body weight (%) vs. day 0, Maximum efficacy: −28.13 (On Day 21)**** %
  Change in body weight (%) vs. day 0, Efficacy on Day 54: −13.40**** %
